Measurements: PMC5428354, “Screening of a natural compound library identifies emodin, a natural compound from Rheum palmatum Linn that inhibits DPP4” (PeerJ, 2017)
Several values for one entry are separate records, joined by “and”; a condition that tells them apart may be missing. Identical values can stand only once.

Legend:
DPP9 [1] = target: T1, DPP9 (Homo sapiens, UniProt Q86TI2); test: DPP9 activity assay (BPS Bioscience kit); assay type: biochemical; details: tested at 100 µM
T1 construct: purchased BPS Bioscience 800209
T1 sequence (Q86TI2 whole entry): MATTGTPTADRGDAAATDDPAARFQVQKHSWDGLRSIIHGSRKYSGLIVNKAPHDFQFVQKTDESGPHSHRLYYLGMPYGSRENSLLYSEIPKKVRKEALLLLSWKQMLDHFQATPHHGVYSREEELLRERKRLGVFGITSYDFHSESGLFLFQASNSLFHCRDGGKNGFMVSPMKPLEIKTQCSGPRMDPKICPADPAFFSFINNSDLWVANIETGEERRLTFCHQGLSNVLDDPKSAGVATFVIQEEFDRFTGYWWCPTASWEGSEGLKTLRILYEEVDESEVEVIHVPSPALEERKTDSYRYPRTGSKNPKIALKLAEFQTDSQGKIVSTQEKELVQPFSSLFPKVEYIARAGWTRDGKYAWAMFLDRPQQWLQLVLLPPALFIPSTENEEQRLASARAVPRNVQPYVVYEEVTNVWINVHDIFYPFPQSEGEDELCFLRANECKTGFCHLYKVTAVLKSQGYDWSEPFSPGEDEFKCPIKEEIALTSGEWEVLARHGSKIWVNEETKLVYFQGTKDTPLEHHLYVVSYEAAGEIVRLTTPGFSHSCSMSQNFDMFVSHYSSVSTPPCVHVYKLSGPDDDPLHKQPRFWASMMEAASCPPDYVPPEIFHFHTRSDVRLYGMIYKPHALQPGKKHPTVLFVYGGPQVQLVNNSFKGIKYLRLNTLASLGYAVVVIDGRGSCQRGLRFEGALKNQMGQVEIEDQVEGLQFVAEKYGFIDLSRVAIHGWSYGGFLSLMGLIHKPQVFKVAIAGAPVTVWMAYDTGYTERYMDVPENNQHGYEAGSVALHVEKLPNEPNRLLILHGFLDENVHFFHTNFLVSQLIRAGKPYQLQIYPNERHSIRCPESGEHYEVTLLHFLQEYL
Method: A DPP9 assay kit was purchased from BPS Bioscience (Cat# 800209), and the assay protocol was followed to test for inhibitory activity against DPP9. Briefly, DPP substrate 1 was diluted to make a 100 µM stock solution, and DPP9 protein was diluted in DPP assay buffer to 2 ng/µl (20 ng/reaction). For the tested compounds, 10 µl of diluted DPP9 protein, 5 µl of diluted DPP substrate 1, 84 µl of DPP assay buffer and 1 µl of inhibitor were added into the assay system for a total volume of 100 µl. […]

GLP-1 [2] = test: Plasma GLP-1 activity after oral emodin; assay type: in vivo, mice; set-up: GLP-1: unit not given here; details: 30 mg/kg P.O.; for GLP-1: ob/ob mice, individual animals
Method: In the subsequent experiment, emodin (30 mg/kg, P.O.) was administered on Balb/C mice (n = 5) or ob/ob (-/-) mice (n = 5). […] This downregulation maintained 2 h in Balb/C mice, and 4 h in ob/ob (-/-) mice, which rebounded afterwards (Fig. 5A). […] Plasma GLP-1 activity was also measured.

DPP9 [3] = target: T1, DPP9; test: DPP9 activity assay (BPS Bioscience kit); assay type: biochemical; details: 100 µM, Well #1-#3
GLP-1 [4] = test: Plasma GLP-1 activity after oral emodin; assay type: in vivo, mice; set-up: unit not given here; details: 30 mg/kg P.O., C57BL/6 (head), individual animals
F344/N rats = test system: F344/N rats; set-up: method as in National Toxicology Program, 2001; Wang & Chung, 1997; details: male F344/N rats, 280–2,500 ppm; ref National Toxicology Program, 2001; Wang & Chung, 1997; cited from earlier work
B6C3F1 mice = test system: B6C3F1 mice; set-up: method as in National Toxicology Program, 2001; Wang & Chung, 1997; details: 280–2,500 ppm, ref National Toxicology Program, 2001, Wang & Chung, 1997, cited from earlier work

## Cc1cc(O)c2c(c1)C(=O)c1cc(O)cc(O)c1C2=O [Emodin]
DPP9 [1]
  activity against DPP9: without inhibiting
GLP-1 [2]; Balb/C and ob/ob (-/-) mice
  effect on plasma GLP-1 activity: marginal effect
GLP-1 [2]; 0 hours (baseline)
  GLP-1: 1.6192 and 1.6714 and 1.7758 and 1.3843 and 3.4984
GLP-1 [2]; 1 hours
  GLP-1: 2.9503 and 1.4365 and 2.8459 and 1.8541 and 2.8981
GLP-1 [2]; 2 hours
  GLP-1: 3.5245 and 3.4201 and 0.5491 and 2.4022 and 2.2456
GLP-1 [2]; 4 hours
  GLP-1: 0.9667 and 2.1673 and 1.2538 and 1.5148 and 2.9503
GLP-1 [2]; 8 hours
  GLP-1: 3.655 and 0.784 and 1.2277 and 3.1852
DPP9 [3]
  DPP9 assay, Emission (450 nm): 47887 and 46825 and 46023
DPP9 [3]; DMSO = Ctrl
  DPP9 activity: 98.3 % of Ctrl and 96.1 % of Ctrl and 94.5 % of Ctrl
GLP-1 [4]; 0 hours (baseline)
  GLP-1: 2.4022 and 3.1852 and 3.2635 and 2.9242 and 1.0711
GLP-1 [4]; 1 hours
  GLP-1: 2.5849 and 2.8981 and 2.4805 and 2.9503 and 0.9928
GLP-1 [4]; 2 hours
  GLP-1: 2.6371 and 2.5849 and 2.9242 and 1.3843 and 2.0629
GLP-1 [4]; 4 hours
  GLP-1: 2.6893 and 3.1069 and 3.0808 and 3.2113 and 0.4708
GLP-1 [4]; 8 hours
  GLP-1: 1.9063 and 3.394 and 3.3157 and 2.0107 and 0.2881
F344/N rats
  carcinogenic activity: no evidence of carcinogenic activity
B6C3F1 mice; female B6C3F1 mice
  carcinogenic activity: no evidence of carcinogenic activity
B6C3F1 mice; female mice
  nephropathy: increased incidences
B6C3F1 mice; male and female mice
  renal tubule pigmentation: increased incidences
